This note sets out measurements from patent publication US11286263B2, “Macrocyclic fluorine substituted indole derivatives” (The Broad Institute, Inc., priority 2017, dated 2022).

One series concerns the target MCL-1 (Homo sapiens (Human), UniProt Q07820, K194A/K197A/R201A). Put plainly: Protein-protein interaction assay MCL-1/Noxa BH3 peptide (MCL-1 assay), TR-FRET. The class given is binding. The following applies: MCL-1/Noxa BH3 peptide TR-FRET; median. The gist of the method: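 TR-FRET competition between MBP-MCL-1 (173-321, 1 nM) and biotin-Noxa BH3 peptide (1 nM) with anti-MBP-Eu/streptavidin-XL665; 11 compound levels 0.1 nM–20 μM, 10 min preincubation. Incubated 1 h at 22 °C then overnight at 4 °C, pH 7 Tris buffer. 665/620 ratio normalized to DMSO and no-MCL-1; 4-parameter IC50.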
In general terms: TR-FRET usually uses a lanthanide donor and a delayed reading to cut background.

In series [1] the test system is SUDHL5. The series is described as follows: Induction of caspase-3/7 activity, SUDHL5 (Assay 4). The class given is cell-based. The following applies: SUDHL5 cells. The procedure, abridged:
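DLBCL lines treated with compounds for 3 h at 37° C.; caspase-3/7 activity read by Caspase-Glo 3/7 luminescence. Medium-only background subtracted; EC50 fitted with bottom fixed at 1 and top set to reference compound's maximal induction.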

Series [2] has as its system SUDHL5. Put plainly: Induction of cytotoxicity, SUDHL5 (Assay 6). The note with it: read-out: IC50 Cytotox SUDHL5 [M] (median), SUDHL5 cells, 5 h, CellTiter-Glo. On the technique in general: Cellular ATP, detected with luciferase, serves as a proxy for viable cell number.
The test system of the next series is SUDHL10. Put plainly: Induction of cytotoxicity, SUDHL10 (Assay 6). The note with it: read-out: IC50 Cytotox SUDHL10 [M] (median), SUDHL10 cells, 5 h, CellTiter-Glo.
[3] abbreviates: Homo sapiens, SU-DHL-5, 3 h, Caspase-Glo 3/7, median.

Structures can show the parent of a compound that is named as a salt. Where two headings read alike, the source gives them in different places.

Sequence of MCL-1 (Q07820 whole entry K194A/K197A/R201A, looked up): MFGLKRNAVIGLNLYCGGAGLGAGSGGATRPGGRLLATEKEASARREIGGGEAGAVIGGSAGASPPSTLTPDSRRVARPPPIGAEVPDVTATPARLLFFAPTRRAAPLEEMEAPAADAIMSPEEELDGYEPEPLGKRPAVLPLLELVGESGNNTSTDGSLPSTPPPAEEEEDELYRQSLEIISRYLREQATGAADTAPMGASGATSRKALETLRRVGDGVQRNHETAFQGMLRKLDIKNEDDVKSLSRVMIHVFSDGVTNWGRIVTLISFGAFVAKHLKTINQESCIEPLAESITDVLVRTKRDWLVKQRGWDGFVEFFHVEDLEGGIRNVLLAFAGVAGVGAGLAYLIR

As to `CCc1c2c(nn1C)CN(C)CCCCn1c(C(=O)O)c(CCCOc3cccc4cc(F)ccc34)c3ccc(F)c-2c31` (racemic) [Example 53, (rac)-3-ethyl-4-fluoro-7-{3-[(6-fluoro-1-naphthyhoxy]propyl}-2,14-dimethyl-10,11,12,13,14,15-hexahydro-2H-pyrazolo[3′,4′:8,9][1,6]diazacycloundecino[10,11,1-hi]indole-8-carboxylic acid], the half-inhibitory concentration (IC50) on MCL-1 was found to be 0.00091 µM; in the series on SUDHL5 [2] (Homo sapiens, SU-DHL-5, 5 h) it was 3.3e-07 M; with SUDHL10 (Homo sapiens, SU-DHL10, 5 h), 6.9e-07 M. This compound also showed an EC50 in the series on SUDHL5 [1] (setting [3]) of 0.38 µM.
In the same order, the values of `CCc1nn(C)c2c1-c1c(F)ccc3c(CCCOc4cc(C)c(Cl)c(C)c4)c(C(=O)O)n(c13)CCCCOC2` (racemic) [Example 46, (rac)-1-(3-(4-chloro-3,5-dimethylphenoxy)propyl)-12-ethyl-13-fluoro-10-methyl-4,5,6,7,9,10-hexahydropyrazolo[4′,3′:9,10][1]oxa[6]azacycloundecino[8,7,6-hi]indole-2-carboxylic acid] are 0.002 µM, 3.1e-06 M, 5.7e-06 M and 2.5 µM.
On to `CCc1nn(C)c2c1-c1c(F)ccc3c(CCCOc4ccc(F)c5ccccc45)c(C(=O)O)n(c13)CCCCOC2` (single isomer, unassigned; enantiomer 1) [Example 42, 3-ethyl-4-fluoro-7-{3-[(4-fluoronaphthalen-1-yl)oxy]propyl}-1-methyl-1,10,11,12,13,15-hexahydropyrazolo[4′,3′:9,10][1,6]oxazacycloundecino[8,7,6-hi]indole-8-carboxylic acid (enantiomer 1)], for which the IC50 was 0.0017 µM against MCL-1, 2e-06 M in the series on SUDHL5 [2] and 9.6e-06 M in the series with SUDHL10. The same compound returned an EC50 in the series with SUDHL5 [1] (3 h, Caspase-Glo 3/7, median) of 1.8 µM.
For `CCc1c2c(nn1C)COCCCCn1c(C(=O)O)c(CCCOc3ccc(F)c4ccccc34)c3ccc(F)c-2c31` (single isomer, unassigned; enantiomer 1) [Example 27, 3-ethyl-4-fluoro-7-{3-[(4-fluoronaphthalen-1-yl)oxy]propyl}-2-methyl-2,10,11,12,13,15-hexahydropyrazolo[4′,3′:9,10][1,6]oxazacycloundecino[8,7,6-hi]indole-8-carboxylic acid-N-ethylethanamine salt (enantiomer 1)] the same measures were 0.0015 µM, 1e-06 M, 1.8e-06 M and 0.66 µM.
In the case of `Cc1cc(OCCCc2c(C(=O)O)n3c4c(c(F)ccc24)-c2c(nn(C)c2C)COCCCC3)cc(C)c1Cl` (racemic) [Example 20, (rac)-1-(3-(4-chloro-3,5-dimethylphenoxy)propyl)-13-fluoro-11,12-dimethyl-4,5,6,7,9,11-hexahydropyrazolo[4′,3′:9,10][1]oxa[6]azacycloundecino[8,7,6-hi]indole-2-carboxylic acid], the IC50 is 0.0015 µM against MCL-1; 1.8e-06 M in the series with SUDHL5 [2] (Homo sapiens, SU-DHL-5, 5 h); 2.6e-06 M with SUDHL10 (Homo sapiens, SU-DHL10, 5 h). The compound also yielded an EC50 with SUDHL5 [1] (setting [3]) of 1.4 µM.
For `Cc1c2c(nn1C)COCCCCn1c(C(=O)O)c(CCCOc3cccc4c3CCCC4)c3ccc(F)c-2c31` (racemic) [Example 18, (rac)-13-fluoro-11,12-dimethyl-1-(3-((5,6,7,8-tetrahydronaphthalen-1-yl)oxy)propyl)-4,5,6,7,9,11-hexahydropyrazolo[4′,3′:9,10][1]oxa[6]azacycloundecino[8,7,6-hi]indole-2-carboxylic acid] the same measures were 0.0016 µM, 8.8e-07 M, 1.7e-06 M and 0.84 µM.
Consider `CCc1c2c(nn1C)COCCCCn1c(C(=O)O)c(CCCOc3cccc4cc(F)ccc34)c3ccc(F)c-2c31` (single isomer, unassigned; enantiomer 1) [Example 24, 3-ethyl-4-fluoro-7-{3-[(6-fluoronaphthalen-1-yl)oxy]propyl}-2-methyl-2,10,11,12,13,15-hexahydropyrazolo[4′,3′:9,10][1,6]oxazacycloundecino[8,7,6-hi]indole-8-carboxylic acid (enantiomer 1)], for which the IC50 against MCL-1 amounted to 0.00058 µM; in the series with SUDHL5 [2], 3.9e-07 M; in the series with SUDHL10, 6.8e-07 M.

One may read the IC50 as the concentration that gives 50% inhibition. By EC50 is commonly meant the concentration needed to bring the measured effect to its halfway point. A high value points to weaker potency.
